From patent US12606572B2, “Substituted heterocycles and uses thereof” (Kumquat Biosciences Inc., priority 2023, dated 2026)
pIC50: −log10 of the molar value.

What follows are molecules tested against T1, KRAS G12S (Homo sapiens, UniProt P01116, G12S) (assay: HTRF assay, interaction of GST-tagged K-Ras with His-tagged hSOS1 (KRAS G12S)). Settings: <500 nM, read-out: Inhibition of KRAS G12S (IC50).
T1 construct: made in house; host or cells: E. coli BL21 (DE3)
T1 sequence (P01116 1-188 isoform P01116-2 G12S): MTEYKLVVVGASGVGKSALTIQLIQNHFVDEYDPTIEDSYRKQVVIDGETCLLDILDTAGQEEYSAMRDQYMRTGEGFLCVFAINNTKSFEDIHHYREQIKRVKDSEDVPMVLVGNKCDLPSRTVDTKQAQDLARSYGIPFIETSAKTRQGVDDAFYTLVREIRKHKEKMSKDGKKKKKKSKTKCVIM
Type: biochemical
Description: (§1) This assay can be also used to assess a selective inhibition or reduction of signaling output of a mutant Ras protein relative to a wildtype, or relative to a different mutant Ras protein. For example, the equilibrium interaction of wildtype KRAS or K-Ras mutant (e.g., wildtype or a mutant thereof) with SOS1 (e.g., hSOS1) can be assessed as a proxy or an indication for the ability of a subject compound to bind and inhibit Ras protein. The HTRF assay detects from (i) a fluorescence resonance energy transfer (FRET) donor (e.g., antiGST-Europium) that is bound to GST-tagged K-Ras mutant to (ii) a FRET acceptor (e.g., anti-6His-XL665) bound to a His-tagged hSOS1.
(§2) The assay buffer can contain ˜5 mM HEPES pH 7.4, ˜150 mM NaCl, ˜1 mM DTT, 0.05% BSA and 0.0025% (v/v) Igepal. A Ras working solution is prepared in an assay buffer containing typically a suitable amount of the protein construct (e.g., GST-tagged K-Ras mutant) and the FRET donor (e.g., antiGST-Eu(K) from Cisbio, France). A SOS1 working solution is prepared in an assay buffer containing suitable amount of the protein construct (e.g., His-hSOS1) and the FRET acceptor (e.g., anti-6His-XL665 from Cisbio, France). A suitable amount of the protein construct will depend on the range of activity or range of IC50 values being detected or under investigation. For detecting an IC50 within a range of 500 nM, the protein constructs of the same range of molarity can be utilized.
(§3) A fixed volume of DMSO with or without test compound is transferred into a 384-well plate. Ras working solution is added to all wells of the test plate. SOS1 working solution is added to all wells except for those that are subsequently filled with inhibitor control solution. Upon incubation for about 10 minutes or longer, the fluorescence is measured with a M1000Pro plate reader (Tecan) using HTRF detection (excitation 337 nm, emission 1: 620 nm, emission 2: 665 nm). Compounds are tested in duplicate at different concentrations (for example, 10 μM, 2.5 μM, 0.63 μM, 0.16 μM, 0.04 μM, 0.01 μM test compound). The ratiometric data (i.e., emission 2 divided by emission 1) is used to calculate IC50 values against Ras using GraphPad Prism (GraphPad software). Signaling output measured in terms of IC50 values can be obtained and a ratio of IC50 against one mutant relative to another mutant can be calculated. For instance, a selective reduction of K-Ras G12S signaling output can be evidenced by a ratio greater than one. In particular, a selective reduction of K-Ras G12S signaling relative to K-Ras WT signaling is evidenced if the ratio of IC50 (against K-Ras WT) to IC50 (against K-Ras G12S) is greater than 1.
With `C[C@H]1COc2c(Cl)c(-c3ccc(F)c4sc(N)c(C#N)c34)c(F)c3nc(OC[C@@]45CCCN4C[C@H](F)C5)nc(c23)N1C[C@@H]1CN(C(=O)n2ccnc2)[C@@H]1C1(C)CC1` (single isomer, unassigned) [Compound 421] the pIC50 was greater than 6.30. With `C[C@H](O)[C@H]1COc2c(Cl)c(-c3ccc(F)c4sc(N)c(C#N)c34)c(F)c3nc(OC[C@@]45CCCN4C[C@H](F)C5)nc(c23)N1C1CC(CN(C)C(=O)n2ccnc2)C1` (stereo partly drawn) [Compound 401, N-((3-((5R)-9-(2-amino-3-cyano-7-fluorobenzo[b]thiophen-4-yl)-8-chloro-10-fluoro-2-(((2R,7aS)-2-fluorotetrahydro-1H-pyrrolizin-7a(5H)-yl)methoxy)-5-((S)-1-hydroxyethyl)-5,6-dihydro-4H-[1,4]oxazepino[5,6,7-de]quinazolin-4-yl)cyclobutyl)methyl)-N-methyl-1H-imidazole-1-carboxamide] the pIC50 was greater than 6.30. Molecule `N#Cc1cn(C(=O)N2CC(CN3CCOc4c(Cl)c(-c5ccc(F)c6sc(N)c(C#N)c56)c(F)c5nc(OC[C@@]67CCCN6C[C@H](F)C7)nc3c45)C2)cn1` [Compound 436, 1-(3-((9-(2-amino-3-cyano-7-fluorobenzo[b]thiophen-4-yl)-8-chloro-10-fluoro-2-(((2R,7aS)-2-fluorotetrahydro-1H-pyrrolizin-7a(5H)-yl)methoxy)-5,6-dihydro-4H-[1,4]oxazepino [5,6,7-de]quinazolin-4-yl)methyl)azetidine-1-carbonyl)-1H-imidazole-4-carbonitrile] has a pIC50 greater than 6.30. In the case of `CN1[C@H](C2CC2)[C@@H]1C(=O)N1CC(CN2CCOc3c(Cl)c(-c4ccc(F)c5sc(N)c(C#N)c45)c(F)c4nc(OC[C@@]56CCCN5C[C@H](F)C6)nc2c34)C1` (stereo partly drawn) [Compound 440, 2-amino-4-(8-chloro-4-((1-((2R,3R)-3-cyclopropyl-1-methylaziridine-2-carbonyl)azetidin-3-yl)methyl)-10-fluoro-2-(((2R,7aS)-2-fluorotetrahydro-1H-pyrrolizin-7a (5H)-yl)methoxy)-5,6-dihydro-4H-[1,4]oxazepino[5,6,7-de]quinazolin-9-yl)-7-fluorobenzo[b]thiophene-3-carbonitrile], the pIC50 was greater than 6.30. With `CC(CN(C)C(=O)n1ccnc1)N1c2nc(OC[C@@]34CCCN3C[C@H](F)C4)nc3c(F)c(-c4ccc(F)c5sc(N)c(C#N)c45)c(Cl)c(c23)OC[C@@H]1[C@H](C)O` (stereo partly drawn) [Compound 451, N-(2-((5R)-9-(2-amino-3-cyano-7-fluorobenzo[b]thiophen-4-yl)-8-chloro-10-fluoro-2-(((2R,7aS)-2-fluorotetrahydro-1H-pyrrolizin-7a(5H)-yl)methoxy)-5-((S)-1-hydroxyethyl)-5,6-dihydro-4H-[1,4]oxazepino [5,6,7-de]quinazolin-4-yl)propyl)-N-methyl-1H-imidazole-1-carboxamide] the pIC50 was greater than 6.30. For `CC1([C@@H]2[C@H](CN3CCOc4c(Cl)c(-c5ccc(F)c6sc(N)c(C#N)c56)c(F)c5nc(OC[C@@]67CCCN6C[C@H](F)C7)nc3c45)CN2C(=O)n2ccnc2)CC1` [Compound 486, 4-(4-(((2S,3R)-1-(1H-imidazole-1-carbonyl)-2-(1-methylcyclopropyl)azetidin-3-yl)methyl)-8-chloro-10-fluoro-2-(((2R,7aS)-2-fluorotetrahydro-1H-pyrrolizin-7a(5H)-yl)methoxy)-5,6-dihydro-4H-[1,4]oxazepino [5,6,7-de]quinazolin-9-yl)-2-amino-7-fluorobenzo[b] thiophene-3-carbonitrile], the pIC50 was greater than 6.30.

The molecules below were run against T2, KRAS WT (Homo sapiens, UniProt P01116) (assay: HTRF assay, interaction of GST-tagged K-Ras with His-tagged hSOS1 (KRAS wildtype)). Settings: <500 nM, read-out: Inhibition of KRAS WT (IC50).
T2 construct: made in house; host or cells: E. coli BL21 (DE3)
T2 sequence (P01116 1-188 isoform P01116-2): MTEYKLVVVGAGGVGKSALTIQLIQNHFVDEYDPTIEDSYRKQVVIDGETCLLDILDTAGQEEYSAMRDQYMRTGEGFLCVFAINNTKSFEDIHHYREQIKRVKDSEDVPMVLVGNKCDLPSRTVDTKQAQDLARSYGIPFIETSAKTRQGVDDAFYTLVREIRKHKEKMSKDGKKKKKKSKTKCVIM
Type: biochemical
Description: as §1, §2, §3
`C[C@H]1COc2c(Cl)c(-c3ccc(F)c4sc(N)c(C#N)c34)c(F)c3nc(OC[C@@]45CCCN4C[C@H](F)C5)nc(c23)N1C[C@@H]1CN(C(=O)n2ccnc2)[C@@H]1C1(C)CC1` (single isomer, unassigned) [Compound 473] gave a pIC50 greater than 6.30. For `Cc1cn(C(=O)N2CC[C@@H](N3C[C@H](C)Oc4cc(-c5cc(N)c(F)c(C)c5C(F)(F)F)c(F)c5nc(OC[C@@]67CCCN6C[C@H](F)C7)nc3c45)[C@H]2C)c(C)n1` [Compound 415, ((2R,3R)-3-((S)-9-(5-amino-4-fluoro-3-methyl-2-(trifluoromethyl)phenyl)-10-fluoro-2-(((2R,7aS)-2-fluorotetrahydro-1H-pyrrolizin-7a(5H)-yl)methoxy)-6-methyl-5,6-dihydro-4H-[1,4]oxazepino [5,6,7-de]quinazolin-4-yl)-2-methylpyrrolidin-1-yl)(2,4-dimethyl-1H-imidazol-1-yl)methanone], the pIC50 was greater than 6.30. Work on `CN1[C@H](C2CC2)[C@@H]1C(=O)N1CC(CN2CCOc3c(Cl)c(-c4ccc(F)c5sc(N)c(C#N)c45)c(F)c4nc(OC[C@@]56CCCN5C[C@H](F)C6)nc2c34)C1` (stereo partly drawn) [Compound 460, 2-amino-4-(8-chloro-4-((1-((2R,3R)-3-cyclopropyl-1-methylaziridine-2-carbonyl)azetidin-3-yl)methyl)-10-fluoro-2-(((2R,7aS)-2-fluorotetrahydro-1H-pyrrolizin-7a(5H)-yl)methoxy)-5,6-dihydro-4H-[1,4]oxazepino [5,6,7-de]quinazolin-9-yl)-7-fluorobenzo[b]thiophene-3-carbonitrile] yielded a pIC50 greater than 6.30. Molecule `CC(CN(C)C(=O)n1ccnc1)N1c2nc(OC[C@@]34CCCN3C[C@H](F)C4)nc3c(F)c(-c4ccc(F)c5sc(N)c(C#N)c45)c(Cl)c(c23)OC[C@@H]1[C@H](C)O` (stereo partly drawn) [Compound 467, N-(2-((5R)-9-(2-amino-3-cyano-7-fluorobenzo[b]thiophen-4-yl)-8-chloro-10-fluoro-2-(((2R,7aS)-2-fluorotetrahydro-1H-pyrrolizin-7a(5H)-yl)methoxy)-5-((S)-1-hydroxyethyl)-5,6-dihydro-4H-[1,4]oxazepino[5,6,7-de]quinazolin-4-yl)propyl)-N-methyl-1H-imidazole-1-carboxamide] has a pIC50 greater than 6.30. For `N#Cc1cn(C(=O)N2CC(CN3CCOc4c(Cl)c(-c5ccc(F)c6sc(N)c(C#N)c56)c(F)c5nc(OC[C@@]67CCCN6C[C@H](F)C7)nc3c45)C2)cn1` [Compound 478, 1-(3-((9-(2-amino-3-cyano-7-fluorobenzo[b]thiophen-4-yl)-8-chloro-10-fluoro-2-(((2R,7aS)-2-fluorotetrahydro-1H-pyrrolizin-7a(5H)-yl)methoxy)-5,6-dihydro-4H-[1,4]oxazepino[5,6,7-de]quinazolin-4-yl)methyl)azetidine-1-carbonyl)-1H-imidazole-4-carbonitrile], the pIC50 was greater than 6.30. `C[C@H](O)[C@H]1COc2c(Cl)c(-c3ccc(F)c4sc(N)c(C#N)c34)c(F)c3nc(OC[C@@]45CCCN4C[C@H](F)C5)nc(c23)N1C1CC(CN(C)C(=O)n2ccnc2)C1` (stereo partly drawn) [Compound 482, N-((3-((5R)-9-(2-amino-3-cyano-7-fluorobenzo[b]thiophen-4-yl)-8-chloro-10-fluoro-2-(((2R,7aS)-2-fluorotetrahydro-1H-pyrrolizin-7a(5H)-yl)methoxy)-5-((S)-1-hydroxyethyl)-5,6-dihydro-4H-[1,4]oxazepino [5,6,7-de]quinazolin-4-yl)cyclobutyl)methyl)-N-methyl-1H-imidazole-1-carboxamide] gave a pIC50 greater than 6.30. Molecule `CC1([C@@H]2[C@H](CN3CCOc4c(Cl)c(-c5ccc(F)c6sc(N)c(C#N)c56)c(F)c5nc(OC[C@@]67CCCN6C[C@H](F)C7)nc3c45)CN2C(=O)n2ccnc2)CC1` [Compound 485, 4-(4-(((2S,3R)-1-(1H-imidazole-1-carbonyl)-2-(1-methylcyclopropyl)azetidin-3-yl)methyl)-8-chloro-10-fluoro-2-(((2R,7aS)-2-fluorotetrahydro-1H-pyrrolizin-7a(5H)-yl)methoxy)-5,6-dihydro-4H-[1,4]oxazepino [5,6,7-de]quinazolin-9-yl)-2-amino-7-fluorobenzo[b] thiophene-3-carbonitrile] has a pIC50 greater than 6.30.
